“And” between values parts separate entries of the source, which are not always exact repeats. Equal entries are not always repeated. Inconclusive results and toxic doses are left out.
Test system: CD2F1 mice, L1210 leukemia ip, survival T/C
Assay: NCI In Vivo Anticancer Drug Screen. Data for tumor model L1210 Leukemia (intraperitoneal) in CD2F1 (CDF1) mice
Conditions: higher = longer survival
How it was run: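 Each value reflects a quotient of treated over vehicle control outcomes in mice with a transplanted tumor.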

[1] = endpoint: mean survival time, dose: 100.0 mg/kg/injection, schedule: Q01DX001 (ip), vehicle: saline
[2] = endpoint: mean survival time, dose: 200.0 mg/kg/injection, schedule: Q01DX001 (ip), vehicle: saline
[3] = endpoint: mean survival time, dose: 400.0 mg/kg/injection, schedule: Q01DX001 (ip), vehicle: saline
[4] = endpoint: mean survival time, dose: 100.0 mg/kg/injection, schedule: Q01DX009 (ip), vehicle: saline with Tween-80
[5] = endpoint: mean survival time, dose: 200.0 mg/kg/injection, schedule: Q01DX009 (ip), vehicle: saline with Tween-80
[6] = endpoint: mean survival time, dose: 400.0 mg/kg/injection, schedule: Q01DX009 (ip), vehicle: saline with Tween-80

In the case of CN(Cc1cnc2nc(N)nc(N)c2n1)c1ccc(C(=O)NC(CCC(=O)NC(CCC(=O)NC(CCC(=O)NC(CCC(=O)O)C(=O)O)C(=O)O)C(=O)O)C(=O)O)cc1 (stereo not drawn), the T/C (endpoint: mean survival time, dose: 0.5 mg/kg/injection, schedule: Q01DX005 (ip), vehicle: sodium bicarbonate) is reported as 102 % of control, the T/C (endpoint: mean survival time, dose: 1.0 mg/kg/injection, schedule: Q01DX005 (ip), vehicle: sodium bicarbonate) is reported as 114 % of control and 111 % of control and the T/C (endpoint: mean survival time, dose: 2.0 mg/kg/injection, schedule: Q01DX005 (ip), vehicle: sodium bicarbonate) is reported as 118 % of control.
For CSc1ccc(NC(=O)C(O)C(O)C(O)C(O)CO)cc1 (stereo not drawn), the T/C (endpoint: mean survival time, dose: 100.0 mg/kg/injection, schedule: Q01DX009 (ip), vehicle: saline) was 103 % of control, the T/C (endpoint: mean survival time, dose: 200.0 mg/kg/injection, schedule: Q01DX009 (ip), vehicle: saline) was 113 % of control and the T/C (endpoint: mean survival time, dose: 400.0 mg/kg/injection, schedule: Q01DX009 (ip), vehicle: saline) was 102 % of control.
In the case of COC1OC(COC(=O)c2ccc([N+](=O)[O-])cc2)C(SC#N)C1OC(=O)c1ccc([N+](=O)[O-])cc1 (stereo not drawn), the T/C (endpoint: mean survival time, dose: 50.0 mg/kg/injection, schedule: Q01DX001 (ip), vehicle: saline) is reported as 101 % of control, the T/C [1] is reported as 101 % of control and the T/C [2] is reported as 91 % of control. The T/C [3] was 101 % of control.
In the case of CCOC(=O)C(C(=O)OCC)n1c(=O)c2c(ncn2C)n(C)c1=O, the T/C (endpoint: mean survival time, dose: 200.0 mg/kg/injection, schedule: Q01DX005 (ip), vehicle: distilled water + Tween-80) is reported as 102 % of control and the T/C (endpoint: mean survival time, dose: 400.0 mg/kg/injection, schedule: Q01DX005 (ip), vehicle: distilled water + Tween-80) is reported as 101 % of control.
In the case of Fc1ccc(N2CCNCC2)cc1, the T/C (endpoint: mean survival time, dose: 12.5 mg/kg/injection, schedule: Q04DX003 (ip), vehicle: saline) is reported as 101 % of control, the T/C (endpoint: mean survival time, dose: 25.0 mg/kg/injection, schedule: Q04DX003 (ip), vehicle: saline) is reported as 103 % of control and the T/C (endpoint: mean survival time, dose: 50.0 mg/kg/injection, schedule: Q04DX003 (ip), vehicle: saline) is reported as 92 % of control.
In the case of Clc1ccc(-c2cc(-c3ccc(Cl)cc3)cc(-c3ccc(Cl)cc3)c2)cc1, the T/C [4] is reported as 101 % of control, the T/C [5] is reported as 106 % of control and the T/C [6] is reported as 105 % of control.
CCOP(=O)(OCC)c1ncn(C2OC(CO)C3OC(C)(C)OC32)c1N (stereo not drawn) was tested, and the T/C (endpoint: mean survival time, dose: 12.5 mg/kg/injection, schedule: Q01DX005 (ip), vehicle: water) was 92 % of control, the T/C (endpoint: mean survival time, dose: 25.0 mg/kg/injection, schedule: Q01DX005 (ip), vehicle: water) was 100 % of control and the T/C (endpoint: mean survival time, dose: 50.0 mg/kg/injection, schedule: Q01DX005 (ip), vehicle: water) was 96 % of control. For the same compound, the T/C (endpoint: mean survival time, dose: 100.0 mg/kg/injection, schedule: Q01DX005 (ip), vehicle: water) was 92 % of control and the T/C (endpoint: mean survival time, dose: 200.0 mg/kg/injection, schedule: Q01DX005 (ip), vehicle: water) was 92 % of control.
O=C1c2ccccc2C(=O)c2c(Cl)cc(Cl)cc21 was tested, and the T/C (endpoint: mean survival time, dose: 75.0 mg/kg/injection, schedule: Q01DX001 (ip), vehicle: saline) was 103 % of control, the T/C (endpoint: mean survival time, dose: 150.0 mg/kg/injection, schedule: Q01DX001 (ip), vehicle: saline) was 111 % of control and the T/C (endpoint: mean survival time, dose: 300.0 mg/kg/injection, schedule: Q01DX001 (ip), vehicle: saline) was 102 % of control.
With CCN(CC)c1ccc(NC(=O)c2ccc(C(=O)Nc3ccc(N(CC)CC)cc3)cc2)cc1 the T/C [1] was 89 % of control, the T/C [2] was 92 % of control and the T/C [3] was 92 % of control.
For CC(=O)O.[Tl], the T/C (endpoint: mean survival time, dose: 20.0 mg/kg/injection, schedule: Q01DX001 (ip), vehicle: saline) was 112 % of control, the T/C (endpoint: mean survival time, dose: 80.0 mg/kg/injection, schedule: Q01DX001 (ip), vehicle: saline) was 97 % of control and the T/C [1] was 100 % of control. The T/C [2] was 100 % of control.
O=C(Nc1cc(C(F)(F)F)ccc1Cl)c1cccc(C(=O)Nc2cc(C(F)(F)F)ccc2Cl)c1 was tested, and the T/C (endpoint: mean survival time, dose: 12.5 mg/kg/injection, schedule: Q01DX009 (ip), vehicle: saline with Tween-80) was 86 % of control, the T/C (endpoint: mean survival time, dose: 25.0 mg/kg/injection, schedule: Q01DX009 (ip), vehicle: saline with Tween-80) was 90 % of control and the T/C (endpoint: mean survival time, dose: 50.0 mg/kg/injection, schedule: Q01DX009 (ip), vehicle: saline with Tween-80) was 92 % of control.
In the case of O=C(CN1CC1)NCCCCCCCNC(=O)CN1CC1, the T/C (endpoint: mean survival time, dose: 14.6 mg/kg/injection, schedule: Q01DX001 (ip), vehicle: carboxymethylcellulose (CMC)) is reported as 158 % of control and the T/C (endpoint: mean survival time, dose: 50.0 mg/kg/injection, schedule: Q01DX001 (ip), vehicle: carboxymethylcellulose (CMC)) is reported as 150 % of control.
With [Na+] the T/C (endpoint: median survival time, dose: 25.0 mg/kg/injection, schedule: Q01DX009 (ip), vehicle: water) was 105 % of control, the T/C (endpoint: median survival time, dose: 50.0 mg/kg/injection, schedule: Q01DX009 (ip), vehicle: water) was 102 % of control and the T/C (endpoint: median survival time, dose: 100.0 mg/kg/injection, schedule: Q01DX009 (ip), vehicle: water) was 93 % of control. For the same compound, the T/C (endpoint: median survival time, dose: 200.0 mg/kg/injection, schedule: Q01DX009 (ip), vehicle: water) was 100 % of control and the T/C (endpoint: median survival time, dose: 400.0 mg/kg/injection, schedule: Q01DX009 (ip), vehicle: water) was 105 % of control.
COc1cccc(/C=N/NC(=O)c2ccccc2N2CCCC2)c1O was tested, and the T/C (endpoint: mean survival time, dose: 12.5 mg/kg/injection, schedule: Q01DX009 (ip), vehicle: olive oil, sesame oil, peanut oil) was 104 % of control, the T/C (endpoint: mean survival time, dose: 25.0 mg/kg/injection, schedule: Q01DX009 (ip), vehicle: olive oil, sesame oil, peanut oil) was 96 % of control and the T/C (endpoint: mean survival time, dose: 50.0 mg/kg/injection, schedule: Q01DX009 (ip), vehicle: olive oil, sesame oil, peanut oil) was 102 % of control. The T/C (endpoint: mean survival time, dose: 100.0 mg/kg/injection, schedule: Q01DX009 (ip), vehicle: olive oil, sesame oil, peanut oil) was 94 % of control and the T/C (endpoint: mean survival time, dose: 200.0 mg/kg/injection, schedule: Q01DX009 (ip), vehicle: olive oil, sesame oil, peanut oil) was 96 % of control.
For CC(=O)Nc1ncc2ccccc2c1-c1ccc(NC(=O)CCN(CCCl)CCCl)cc1, the T/C (endpoint: mean survival time, dose: 6.25 mg/kg/injection, schedule: Q04DX003 (ip), vehicle: other) was 101 % of control, the T/C (endpoint: mean survival time, dose: 12.5 mg/kg/injection, schedule: Q04DX003 (ip), vehicle: other) was 111 % of control and the T/C (endpoint: mean survival time, dose: 25.0 mg/kg/injection, schedule: Q04DX003 (ip), vehicle: other) was 112 % of control.
With CC(=O)OC(c1ccc([N+](=O)[O-])cc1)c1ccccn1 (stereo not drawn) the T/C (endpoint: mean survival time, dose: 100.0 mg/kg/injection, schedule: Q04DX003 (ip), vehicle: other) was 96 % of control, the T/C (endpoint: mean survival time, dose: 200.0 mg/kg/injection, schedule: Q04DX003 (ip), vehicle: other) was 93 % of control and the T/C (endpoint: mean survival time, dose: 400.0 mg/kg/injection, schedule: Q04DX003 (ip), vehicle: other) was 93 % of control.
CC(C)C(C)/C=C\C(C)C1CCC2C3=CC=C4CC(OC(=O)c5ccccc5)CCC4(C)C3=CCC21C (stereo not drawn) was tested, and the T/C (endpoint: mean survival time, dose: 50.0 mg/kg/injection, schedule: Q01DX009 (ip), vehicle: Klucel (hydroxypropylcellulose) (HPC)) was 93 % of control, the T/C (endpoint: mean survival time, dose: 100.0 mg/kg/injection, schedule: Q01DX009 (ip), vehicle: Klucel (hydroxypropylcellulose) (HPC)) was 110 % of control and the T/C (endpoint: mean survival time, dose: 200.0 mg/kg/injection, schedule: Q01DX009 (ip), vehicle: Klucel (hydroxypropylcellulose) (HPC)) was 96 % of control.
With CSc1nc(NC2OC(CO)C(O)C(O)C2O)cc(=O)[nH]1 (stereo not drawn) the T/C (endpoint: median survival time, dose: 12.5 mg/kg/injection, schedule: Q01DX005 (ip), vehicle: saline) was 102 % of control, the T/C (endpoint: median survival time, dose: 25.0 mg/kg/injection, schedule: Q01DX005 (ip), vehicle: saline) was 100 % of control and the T/C (endpoint: median survival time, dose: 50.0 mg/kg/injection, schedule: Q01DX005 (ip), vehicle: saline) was 100 % of control. For the same compound, the T/C (endpoint: median survival time, dose: 100.0 mg/kg/injection, schedule: Q01DX005 (ip), vehicle: saline) was 100 % of control and the T/C (endpoint: median survival time, dose: 200.0 mg/kg/injection, schedule: Q01DX005 (ip), vehicle: saline) was 102 % of control.
For [I][Pt+2][I].[NH-]N1CCN([NH-])CC1, the T/C (endpoint: mean survival time, dose: 3.13 mg/kg/injection, schedule: Q04DX003 (ip), vehicle: distilled water + Tween-80) was 102 % of control, the T/C (endpoint: mean survival time, dose: 6.25 mg/kg/injection, schedule: Q04DX003 (ip), vehicle: distilled water + Tween-80) was 100 % of control and the T/C (endpoint: mean survival time, dose: 12.5 mg/kg/injection, schedule: Q04DX003 (ip), vehicle: distilled water + Tween-80) was 102 % of control. For the same compound, the T/C (endpoint: mean survival time, dose: 25.0 mg/kg/injection, schedule: Q04DX003 (ip), vehicle: distilled water + Tween-80) was 102 % of control, the T/C (endpoint: mean survival time, dose: 50.0 mg/kg/injection, schedule: Q04DX003 (ip), vehicle: distilled water + Tween-80) was 104 % of control and the T/C (endpoint: mean survival time, dose: 100.0 mg/kg/injection, schedule: Q04DX003 (ip), vehicle: distilled water + Tween-80) was 102 % of control. For the same compound, the T/C (endpoint: mean survival time, dose: 200.0 mg/kg/injection, schedule: Q04DX003 (ip), vehicle: distilled water + Tween-80) was 100 % of control.
For C=C1C(=O)O[C@@H]2C[C@@]3(C)CC(=O)C=C(C)[C@@H]3C[C@H]12, the T/C (endpoint: mean survival time, dose: 100.0 mg/kg/injection, schedule: Q01DX001 (ip), vehicle: saline with Tween-80) was 101 % of control, the T/C [4] was 98 % of control and the T/C (endpoint: mean survival time, dose: 200.0 mg/kg/injection, schedule: Q01DX001 (ip), vehicle: saline with Tween-80) was 97 % of control. The T/C [5] was 98 % of control, the T/C (endpoint: mean survival time, dose: 400.0 mg/kg/injection, schedule: Q01DX001 (ip), vehicle: saline with Tween-80) was 101 % of control and the T/C [6] was 104 % of control.
In the case of CC1(O)CC2CCCC1C2 (stereo not drawn), the T/C (endpoint: mean survival time, dose: 100.0 mg/kg/injection, schedule: Q04DX003 (ip), vehicle: saline with Tween-80) is reported as 93 % of control, the T/C (endpoint: mean survival time, dose: 200.0 mg/kg/injection, schedule: Q04DX003 (ip), vehicle: saline with Tween-80) is reported as 90 % of control and the T/C (endpoint: mean survival time, dose: 400.0 mg/kg/injection, schedule: Q04DX003 (ip), vehicle: saline with Tween-80) is reported as 93 % of control.

Reference: PubChem BioAssay AID256 (DTP/NCI, 2004)
